From publication PMC6522510 (Nature Communications, 2019)

Columns and labels:
[1] = tested on: MOLM-13; assay: cells; design: species or system AML cell lines (8); Secondary HTS, 10-point dose-response in triplicate, Cell Titer Glo viability, four-parameter fit EC50; conditions: Homo sapiens, MOLM-13, 72 h, read-out: MOLM-13
[2] = tested on: CMS; assay: Secondary dose-response HTS, Cell Titer Glo; assay type: cell-based, human; conditions: Homo sapiens, HTS, read-out: average effective concentration, CMS
[3] = tested on: CHRF288-11; assay: Secondary dose-response HTS, Cell Titer Glo; assay type: cell-based, human; conditions: Homo sapiens, HTS; secondary high-throughput screen; CHRF288-11; read-out: average effective concentration, CHRF288-11
[4] = tested on: M07e; assay: Secondary dose-response HTS, Cell Titer Glo; assay type: cell-based, human; conditions: Homo sapiens, M-07e; secondary high-throughput screen; M07e; read-out: average effective concentration, M07e
[5] = tested on: CMK; assay: cells; design: species or system AML cell lines (8); Secondary HTS, 10-point dose-response in triplicate, Cell Titer Glo viability, four-parameter fit EC50; conditions: Homo sapiens, CMK, 72 h, read-out: CMK
[6] = tested on: MV4-11; assay: cells; design: species or system AML cell lines (8); Secondary HTS, 10-point dose-response in triplicate, Cell Titer Glo viability, four-parameter fit EC50; conditions: Homo sapiens, MV4-11, 72 h, read-out: MV4-11
[7] = tested on: ML2; assay: Secondary dose-response HTS, Cell Titer Glo; assay type: cell-based, human; conditions: Homo sapiens; secondary high-throughput screen; ML-2; read-out: average effective concentration, ML-2
[8] = tested on: U937; assay: Secondary dose-response HTS, Cell Titer Glo; assay type: cell-based, human; conditions: Homo sapiens, U-937; secondary high-throughput screen; U937; read-out: average effective concentration, U937
[9] = tested on: CHRF288-11; assay: cells; design: species or system AML cell lines (8); Secondary HTS, 10-point dose-response in triplicate, Cell Titer Glo viability, four-parameter fit EC50; conditions: 72 h, read-out: CHRF288-11
[10] = tested on: CMK; assay: Secondary dose-response HTS, Cell Titer Glo; assay type: cell-based, human; conditions: Homo sapiens, CMK, read-out: average effective concentration, CMK
[11] = tested on: ML-2; assay: cells; design: species or system AML cell lines (8); Secondary HTS, 10-point dose-response in triplicate, Cell Titer Glo viability, four-parameter fit EC50; conditions: Homo sapiens, ML-2, 72 h, read-out: ML-2
[12] = tested on: CMS; assay: cells; design: species or system AML cell lines (8); Secondary HTS, 10-point dose-response in triplicate, Cell Titer Glo viability, four-parameter fit EC50; conditions: 72 h, read-out: CMS
[13] = tested on: M07e; assay: cells; design: species or system AML cell lines (8); Secondary HTS, 10-point dose-response in triplicate, Cell Titer Glo viability, four-parameter fit EC50; conditions: M-07e, 72 h, read-out: M07e
[14] = tested on: U937; assay: cells; design: species or system AML cell lines (8); Secondary HTS, 10-point dose-response in triplicate, Cell Titer Glo viability, four-parameter fit EC50; conditions: Homo sapiens, U-937, 72 h, read-out: U937
[15] = tested on: MV4-11; design: species or system AML cell lines (8); Primary HTS, single concentration about 10 uM, Cell Titer Glo viability; log10 luminescence, per cent inhibition relative to cycloheximide control; conditions: 72 h, relative to cycloheximide control, log10 luminescence; inhibitor
[16] = tested on: ML-2; design: species or system AML cell lines (8); Primary HTS, single concentration about 10 uM, Cell Titer Glo viability; log10 luminescence, per cent inhibition relative to cycloheximide control; conditions: 72 h, relative to cycloheximide control, log10 luminescence; inhibitor
[17] = tested on: MOLM-13; design: species or system AML cell lines (8); Primary HTS, single concentration about 10 uM, Cell Titer Glo viability; log10 luminescence, per cent inhibition relative to cycloheximide control; conditions: 72 h, relative to cycloheximide control, log10 luminescence; inhibitor
[18] = tested on: U937; design: species or system AML cell lines (8); Primary HTS, single concentration about 10 uM, Cell Titer Glo viability; log10 luminescence, per cent inhibition relative to cycloheximide control; conditions: 72 h, relative to cycloheximide control, log10 luminescence; inhibitor
[19] = tested on: CHRF288-11; design: species or system AML cell lines (8); Primary HTS, single concentration about 10 uM, Cell Titer Glo viability; log10 luminescence, per cent inhibition relative to cycloheximide control; conditions: 72 h, relative to cycloheximide control, log10 luminescence; inhibitor
[20] = tested on: M07e; design: species or system AML cell lines (8); Primary HTS, single concentration about 10 uM, Cell Titer Glo viability; log10 luminescence, per cent inhibition relative to cycloheximide control; conditions: 72 h, relative to cycloheximide control, log10 luminescence; inhibitor
[21] = tested on: CMS; design: species or system AML cell lines (8); Primary HTS, single concentration about 10 uM, Cell Titer Glo viability; log10 luminescence, per cent inhibition relative to cycloheximide control; conditions: 72 h, relative to cycloheximide control, log10 luminescence; inhibitor
[22] = tested on: CMK; design: species or system AML cell lines (8); Primary HTS, single concentration about 10 uM, Cell Titer Glo viability; log10 luminescence, per cent inhibition relative to cycloheximide control; conditions: 72 h, relative to cycloheximide control, log10 luminescence; inhibitor
[23] = tested on: MOLM-13; assay: Secondary dose-response HTS, Cell Titer Glo; assay type: cell-based, human; conditions: Homo sapiens; secondary high-throughput screen; MOLM-13; read-out: average effective concentration, MOLM-13
[24] = tested on: MV4-11; assay: Secondary dose-response HTS, Cell Titer Glo; assay type: cell-based, human; conditions: Homo sapiens; secondary high-throughput screen; MV4-11; read-out: average effective concentration, MV4-11
[25] = secondary high-throughput screen, CMS
[26] = secondary high-throughput screen

Row | EC50 [1] [µM] | EC50 [6] [µM] | EC50 [8] [µM] | Compound | EC50 [3] [µM] | EC50 [4] [µM] | EC50 [5] [µM] | EC50 [7] [µM] | EC50 [2, 25] [µM] | EC50 [9] [µM] | EC50 [11] [µM] | EC50 [13] [µM] | other results
1 | > 10 | > 10 | 1.7 | C=C1CC[C@@H]2[C@](C)(CO)[C@H](O)CC[C@@]2(C)[C@@H]1C/C=C1/C(=O)OC[C@H]1O [ANDROGRAPHOLIDE] | 8.5 | 10 | > 10 | 3.8 | – | – | – | – | EC50 [2]: 5.8 µM
2 | > 10 | > 10 | 6.1 | O=C(Nc1c[nH]nc1-c1nc2ccc(CN3CCOCC3)cc2[nH]1)NC1CC1 [AT9283] | – | 0.09 | – | 6.6 | 0.19 | > 10 | – | – | EC50 [10, 26]: 0.19 µM
3 | > 10 | > 10 | 0.001 | O=C(/C=C/c1ccc(CN(CCO)CCc2c[nH]c3ccccc23)cc1)NO [DACINOSTAT] | 0.001 | 0.001 | – | 0.001 | 0.001 | – | – | – | MV4-11 %inh [15]: 78.77%; ML-2 %inh [16]: 65.79%; MOLM-13 %inh [17]: 102.9%; U937 %inh [18]: 87.23%; CHRF288-11 %inh [19]: 161.9%; M07e %inh [20]: 149.6%; CMS %inh [21]: 111%; EC50 [10, 26]: 0.001 µM; CMK %inh [22]: 120.3%
4 | – | – | 0.14 | COc1cccc2c1C(=O)c1c(O)c3c(c(O)c1C2=O)C[C@@](O)(C(=O)CO)C[C@@H]3O[C@H]1C[C@H](N)[C@H](O)[C@H](C)O1 [DOXORUBICIN] | 0.13 | 0.23 | > 10 | 0.44 | 0.74 | 0.134 | – | – | EC50 [24]: 0.051 µM; EC50 [23]: 0.036 µM
5 | – | – | 4.3 | COc1cc([C@@H]2c3cc4c(cc3[C@@H](O[C@@H]3O[C@@H]5CO[C@@H](C)O[C@H]5[C@H](O)[C@H]3O)[C@H]3COC(=O)[C@H]23)OCO4)cc(OC)c1O [ETOPOSIDE] | 3.6 | 1.7 | > 10 | 0.71 | > 10 | – | – | – | EC50 [24]: 0.67 µM; EC50 [23]: 2.1 µM

The next lines start with the molecule.

Row | Compound | EC50 [1] [µM] | EC50 [6] [µM] | EC50 [8] [µM] | EC50 [3] [µM] | EC50 [4] [µM] | EC50 [5] [µM] | EC50 [7] [µM] | EC50 [2, 25] [µM] | EC50 [9] [µM] | EC50 [11] [µM] | EC50 [13] [µM] | other results
6 | COc1cc(CCc2cc(NC(=O)c3ccc(N4C[C@@H](C)N[C@@H](C)C4)cc3)n[nH]2)cc(OC)c1 [AZD4547] | – | – | – | – | – | – | – | – | > 10 | > 10 | > 10 | EC50 [12]: > 10 µM; EC50 [14]: > 10 µM
7 | Nc1cc(F)ccc1NC(=O)c1ccc(CNC(=O)/C=C/c2cccnc2)cc1 [CHIDAMIDE] | > 10 | > 10 | – | – | 1.5 | – | 8.7 | – | > 10 | – | – | EC50 [2]: 9.9 µM; EC50 [14]: > 10 µM; EC50 [10]: 0.25 µM
8 | CC(C)C[C@H](NC(=O)[C@H](CCc1ccccc1)NC(=O)CN1CCOCC1)C(=O)N[C@@H](Cc1ccccc1)C(=O)N[C@@H](CC(C)C)C(=O)[C@@]1(C)CO1 [Carfilzomib] | – | – | – | – | – | – | – | – | – | 0.0029 | – | –
9 | Nc1nc(Cl)nc2c1ncn2[C@@H]1O[C@H](CO)[C@@H](O)[C@@H]1F [Clofarabine, clofarabine] | – | – | – | – | – | – | – | – | – | 0.125 | – | –
10 | Nc1ncn([C@H]2C[C@H](O)[C@@H](CO)O2)c(=O)n1 [DECITABINE] | – | 9.6 | 0.31 | 7 | – | – | – | – | – | > 10 | > 10 | EC50 [12]: > 10 µM; EC50 [23]: 0.001 µM; EC50 [10, 26]: 4.3 µM
11 | CC(=O)O[C@@]12CO[C@@H]1C[C@H](O)[C@@]1(C)C(=O)[C@H](O)C3=C(C)[C@@H](OC(=O)[C@H](O)[C@@H](NC(=O)OC(C)(C)C)c4ccccc4)C[C@@](O)([C@@H](OC(=O)c4ccccc4)[C@H]21)C3(C)C [Docetaxel, docetaxel] | – | – | – | – | – | – | – | – | – | > 10 | – | –
12 | CCOc1ccccc1-n1c(C(C)N2CCN(C(=O)COc3ccc(Cl)cc3)CC2)nc2ccccc2c1=O (stereo not drawn) [ERASTIN] | > 10 | > 10 | – | 0.19 | 7.5 | > 10 | 0.54 | 9.5 | – | – | – | EC50 [14]: > 10 µM
13 | Cc1cc(Nc2cc(CN3CCOCC3)c3nc(C)c(Cc4ccc(Cl)cc4F)n3n2)n[nH]1 [GANDOTINIB] | > 10 | > 10 | 0.94 | 0.069 | 3 | > 10 | 9.3 | – | – | – | – | EC50 [2]: 0.36 µM
14 | C=CC(=O)N1CCC[C@@H](n2nc(-c3ccc(Oc4ccccc4)cc3)c3c(N)ncnc32)C1 [Ibrutinib] | – | – | – | – | – | – | – | – | > 10 | > 10 | > 10 | –
15 | O=C(O)CNC(=O)C(=O)O [N-OXALYLGLYCINE] | – | > 10 | 3.3 | – | – | – | – | – | > 10 | > 10 | > 10 | EC50 [12]: > 10 µM; EC50 [23]: 2.3 µM
16 | Cn1cc(CNCC2CCN(c3ncc(C(=O)NO)cn3)CC2)c2ccccc21 [Quisinostat] | – | – | – | – | – | – | – | – | – | 0.00387 | 0.0042 | EC50 [14]: 0.0052 µM
17 | CN1CCC(CNc2ccc3ncc(-c4cccc(OC(F)(F)F)c4)n3n2)CC1 [SGI-1776] | – | – | 10 | > 10 | > 10 | > 10 | > 10 | – | – | – | – | EC50 [2]: > 10 µM; EC50 [24]: 0.99 µM; EC50 [23]: 1.6 µM
18 | CN(C)C1CCN(C(=O)c2ccc(NC(=O)Nc3ccc(-c4nc(N5CCOCC5)nc(N5CCOCC5)n4)cc3)cc2)CC1 [SJ000784327, PF-05212384] | – | – | – | – | – | – | – | – | > 10 | > 10 | > 10 | EC50 [12]: > 10 µM
19 | COc1cc(C)c2c(Oc3cccc(C(F)(F)F)c3)c(OC)cc(NC(C)CCCN)c2n1 (stereo not drawn) [TAFENOQUINE] | > 10 | > 10 | > 10 | > 10 | > 10 | > 10 | > 10 | – | – | – | – | EC50 [2]: > 10 µM; MV4-11 %inh [15]: 34.4%; ML-2 %inh [16]: 62.38%; MOLM-13 %inh [17]: 98.6%; U937 %inh [18]: 46.41%; CHRF288-11 %inh [19]: 134.8%; M07e %inh [20]: 38.9%; CMS %inh [21]: 39.64%; CMK %inh [22]: 107.9%
20 | O=C1NC(=O)[C@@H](c2cn3c4c(cccc24)CCC3)[C@@H]1c1c[nH]c2ccccc12 [TIVANTINIB] | > 10 | > 10 | 0.061 | 3.6 | 0.77 | – | 0.055 | 1.5 | – | – | – | EC50 [10, 26]: 0.075 µM
